Data published in patent US20220274947A1, “NOVEL HETEROARYL-TRIAZOLE COMPOUNDS AS PESTICIDES” (Bayer Aktiengesellschaft, priority 2019, published 2022).

Key:
Assay type in all cases: in vivo
[1] = test system: Diabrotica balteata; experiment: Diabrotica balteata spray test; conditions: 168 h, wheat seeds, larvae, after 7 days, read-out: activity (efficacy: 100% means all seedlings have grown up like in the untreated, uninfected control); for pest or weed control at 32 µg/disc, 100 g/ha: application rate 100 g/ha (=32 μg/well)
Outline: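 Efficacy (%) was scored 7 days after spraying, with 100% meaning growth like the untreated, uninfected control and 0% meaning no seedling grew. Spray solutions of compound in acetone/DMF with emulsifier-containing water went onto 1-day-germinated wheat seeds, and each unit was then infested with 10-20 banded cucumber beetle larvae.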

[2] = test system: Nezara viridula; experiment: Nezara viridula spray test; conditions: in Hordeum vulgare, 96 h, barley plants, larvae, after 4 days; for mortality at 100 g/ha: application rate 100 g/ha
Outline: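 Mortality was read at day 4 (0% = no kill, 100% = total kill) after spraying larva-infested barley plants. Test solutions were made from an acetone/DMF concentrate diluted with water holding 1000 ppm alkylarylpolyglycol ether emulsifier.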

[3] = test system: Spodoptera frugiperda; experiment: Spodoptera frugiperda spray test; conditions: in Zea mays, 168 h, read-out: activity (mortality)
Outline: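 Percent kill of fall armyworm caterpillars was assessed 7 days after infesting dried, treated maize leaf sections. Treatment was a spray of compound in acetone/dimethylformamide, diluted with water containing emulsifier at 1000 ppm.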

[4] = test system: Rhipicephalus microplus; experiment: Rhipicephalus (Boophilus) microplus injection test (BOOPMI Inj); conditions: 168 h, injection into adult engorged female ticks, egg deposition after 7 days, read-out: activity (efficacy: 100% means all eggs are infertile); for pest or weed control at 0.004 mg: application rate 4 μg/tick; for pest or weed control at 0.02 mg: application rate 20 μg/tick
Outline: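 Compound in DMSO, 1 μL, injected abdominally into five adult engorged females, which were then held in a climate chamber. Read-out is egg fertility, scored from deposition at 7 days, with unclear eggs followed to hatching (~42 days); 0% means all eggs fertile, 100% all infertile.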

[5] = test system: Ctenocephalides felis; experiment: Ctenocephalides felis in-vitro contact test, adult cat flea (CTECFE Cont); conditions: application rate 5 μg/cm^2 (=500 g/ha), adult cat fleas, after 48 hours, read-out: activity (efficacy: 100% means all fleas are dead or moribund)
Outline: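 Efficacy, as percent of fleas dead or moribund, was scored 48 h after adults (5-10 per tube) were placed in glass tubes whose walls carried dried compound at 5 μg/cm^2 (900 ppm solution). Moribund meant failing to climb away from a 45-50° C. hot plate within 5 min.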

[6] = test system: Myzus persicae; experiment: Myzus persicae spray test; conditions: in Brassica rapa, foliar, 120 h; for mortality at 100 g/ha: read-out: activity (mortality), application rate 100 g/ha, spray, Chinese cabbage leaf disks, after 5 days
Outline: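 Aphid mortality in % was assessed 5 days after spraying; leaf disks of Brassica pekinensis carrying mixed-instar green peach aphids were treated. Spray preparation: active compound in acetone plus dimethylformamide, diluted with emulsifier-containing water (1000 ppm).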

[7] = test system: Rhipicephalus microplus; experiment: Rhipicephalus (Boophilus) microplus in-vitro contact test, larval cattle tick, strain Parkhurst (BOOPMI Cont); conditions: application rate 5 μg/cm^2 (=500 g/ha), tick larvae, after 48 hours, read-out: activity (efficacy: 100% means all larvae are dead or moribund)
Outline: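 After 48 h at 27° C. and 85% humidity, percent dead or moribund larvae was scored from negative geotactic behaviour. Larvae (20-50, Parkhurst strain, synthetic pyrethroid-resistant) were exposed in tubes coated with compound from acetone, 900 ppm corresponding to 5 μg/cm^2.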

SMILES | pest or weed control at 32 µg/disc, 100 g/ha [1] | mortality at 100 g/ha [2] | mortality at 100 g/ha [3] | pest or weed control at 0.004 mg [4] | pest or weed control at 0.02 mg [4] | pest or weed control at 5 µg/cm2 [5] | mortality at 100 g/ha [6] | pest or weed control at 5 µg/cm2 [7] | pest or weed control at 160 µg/disc, 500 g/ha ([1]; application rate 500 g/ha (=160 μg/well)) | mortality at 500 g/ha ([2]; application rate 500 g/ha) | mortality at 500 g/ha [3] | mortality at 500 g/ha ([6]; read-out: activity (mortality), application rate 500 g/ha, spray, Chinese cabbage leaf disks, after 5 days)
Cc1nc([C@H](C)NC(=O)c2cc(Cl)cc(C#N)c2)n(-c2ccc(C#N)cn2)n1 [II-61] | 100% | 100% | 100% | 100% | 100% | 100% | 90% | 100% | – | – | – | –
Cc1nc([C@H](C)NC(=O)c2cc(Cl)nc(C(F)(F)F)c2)n(-c2ccc(C#N)cn2)n1 [II-62] | 100% | 100% | 100% | 100% | 100% | 100% | 100% | 100% | – | – | – | –
Cc1nc([C@H](C)NC(=O)c2cc(Cl)cc(C(F)F)c2)n(-c2ccc(C#N)cn2)n1 [II-65] | 80% | 100% | 100% | 100% | 100% | 100% | 90% | 100% | – | – | – | –
C[C@H](NC(=O)c1cc(C(F)(F)F)cc(C(F)(F)F)c1)c1ncnn1-c1ccc(C(=O)N(C)CC2CC2)cn1 [II-73] | 100% | 100% | 100% | 100% | 100% | 100% | 100% | 100% | 100% | 100% | 100% | 100%
C[C@H](NC(=O)c1cc(OC(F)F)cc(OC(F)F)c1)c1ncnn1-c1ccc(C#N)cn1 [II-77] | 100% | 100% | 100% | 80% | – | 100% | 90% | 90% | – | – | – | –
C[C@H](NC(=O)c1cc(Cl)cc(C(F)(F)F)c1)c1ncnn1-c1ccc(N(C)C(=O)C2CC2)cn1 [II-79] | 100% | 100% | 100% | 100% | – | 100% | 100% | 100% | – | – | – | –
C[C@H](NC(=O)c1cc(C(F)(F)F)cc(C(F)(F)F)c1)c1ncnn1-c1ccc(C(N)=O)cn1 [II-81] | 80% | 100% | 100% | 100% | – | 100% | 90% | 100% | – | – | – | –
CCN(C)C(=O)c1ccc(-n2nc(C)nc2[C@H](C)NC(=O)c2cc(C(F)(F)F)cc(C(F)(F)F)c2)nc1 [II-97] | 100% | 100% | 100% | 100% | – | 100% | 100% | 100% | – | – | – | –
C[C@H](NC(=O)c1cc(C(F)F)cc(C(F)F)c1)c1ncnn1-c1ccc(C#N)cn1 [II-101] | 100% | 100% | 100% | 100% | – | 100% | 90% | 100% | – | – | – | –
C[C@H](NC(=O)c1cc(OC(F)F)cc(C(F)F)c1)c1ncnn1-c1ccc(C#N)cn1 [II-116] | 100% | 100% | 100% | 100% | – | 100% | 90% | 100% | – | – | – | –
Cc1nc([C@H](C)NC(=O)c2cc(OC(F)(F)F)cc(C(F)F)c2)n(-c2ccc(C#N)cn2)n1 [II-117] | 100% | 100% | 100% | 100% | – | 100% | 100% | 100% | – | – | – | –
